Data taken from PubChem BioAssay (NCI).
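Exposure lasted 48 hours, with cells grown in 96-well plates and compounds tested at five concentrations. TGI: concentration producing complete growth inhibition.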

Assays:
Test in all cases: NCI tumour cell line growth inhibition, 48 h
MDA-N = system: MDA-N
SR leukemia = system: SR leukemia
HS 578T breast = system: HS 578T breast
IGROV1 ovarian = system: IGROV1 ovarian
SF-295 CNS = system: SF-295 CNS
SW-620 colon = system: SW-620 colon
HCC-2998 colon = system: HCC-2998 colon
KM12 colon = system: KM12 colon
RXF 393 renal = system: RXF 393 renal
MCF7 breast = system: MCF7 breast
HCT-116 colon = system: HCT-116 colon
OVCAR-5 ovarian = system: OVCAR-5 ovarian
DU-145 prostate = system: DU-145 prostate
NCI-H226 lung = system: NCI-H226 lung
A498 renal = system: A498 renal
NCI/ADR-RES ovarian = system: NCI/ADR-RES ovarian
PC-3 prostate = system: PC-3 prostate
U251 CNS = system: U251 CNS
CCRF-CEM leukemia = system: CCRF-CEM leukemia
ACHN renal = system: ACHN renal
HT29 colon = system: HT29 colon
LOX IMVI melanoma = system: LOX IMVI melanoma
UACC-257 melanoma = system: UACC-257 melanoma
SNB-19 CNS = system: SNB-19 CNS
SK-OV-3 ovarian = system: SK-OV-3 ovarian
SK-MEL-28 melanoma = system: SK-MEL-28 melanoma
MOLT-4 leukemia = system: MOLT-4 leukemia
HL-60(TB) leukemia = system: HL-60(TB) leukemia
A549 NSCLC = system: A549 NSCLC
MALME-3M melanoma = system: MALME-3M melanoma
OVCAR-3 ovarian = system: OVCAR-3 ovarian
T-47D breast = system: T-47D breast
NCI-H23 lung = system: NCI-H23 lung
UO-31 renal = system: UO-31 renal
SN12C renal = system: SN12C renal
HCT-15 colon = system: HCT-15 colon
SF-539 CNS = system: SF-539 CNS
RPMI-8226 leukemia = system: RPMI-8226 leukemia
M14 melanoma = system: M14 melanoma
SF-268 CNS = system: SF-268 CNS
TK-10 renal = system: TK-10 renal
CAKI-1 renal = system: CAKI-1 renal
OVCAR-4 ovarian = system: OVCAR-4 ovarian
SK-MEL-5 melanoma = system: SK-MEL-5 melanoma
HOP-62 NSCLC = system: HOP-62 NSCLC
K-562 leukemia = system: K-562 leukemia
786-0 renal = system: 786-0 renal
EKVX NSCLC = system: EKVX NSCLC
BT-549 breast = system: BT-549 breast
SNB-75 CNS = system: SNB-75 CNS
NCI-H460 lung = system: NCI-H460 lung
MDA-MB-231 breast = system: MDA-MB-231 breast
COLO 205 colon = system: COLO 205 colon
OVCAR-8 ovarian = system: OVCAR-8 ovarian
MDA-MB-435 = system: MDA-MB-435
UACC-62 melanoma = system: UACC-62 melanoma
SK-MEL-2 melanoma = system: SK-MEL-2 melanoma

Measured: TGI

CC(=O)OC12c3ccccc3C(c3ccccc31)C1C(=O)N(c3ccccc3O)C(=O)C12 (stereo not drawn)
not listed: MDA-MB-435 | UACC-62 melanoma | SK-MEL-2 melanoma
> 100 µM: all other assays above

CN1CCC2(CC1)C(=O)N(NC(N)=O)C(=O)C2c1ccccc1 (stereo not drawn)
not listed: SR leukemia | MCF7 breast | A498 renal
> 100 µM: all other assays above
